In US4624960A, “Sedative having analgesic and bradycardiac properties” (Boehringer Ingelheim Vetmedica GmbH, priority 1984, dated 1986):
Counter-ions that a name gives are not always drawn.

Columns and labels:
[1] = Writhing Test (analgesic effect); type: in vivo
Bradycardiac Effect = type: in vivo
Calf = test: Premedication for surgical intervention (hernia umbilicalis) in calf; type: in vivo; conditions: 0.01 mg/kg i.v., operation 20 minutes after injection
Text: (§1) The following table sets forth the correlation between activity and dosage of 2-[(2-bromo-6-fluorophenyl)-imino]-imidazolidine hydrochloride: […]

Poultry = test: Sedation in poultry, activity vs dosage; type: in vivo
Text: as §1

Cattle (calf) = test: Sedation and analgesia in cattle (calf), activity vs dosage; type: in vivo; conditions: for Effect: analgesia / Effect: sedation / Effect: sleep: cattle (calf)
Text: as §1

Horse = test: Sedation and analgesia in horse, activity vs dosage; type: in vivo
Text: as §1

Pig = test: Sedation and analgesia in pig, activity vs dosage; type: in vivo
Text: as §1

[2] = Bradycardiac effect (general statement); conditions: in vivo

## Clc1cccc(Cl)c1N=C1NCCN1 [2-[(2,6-Dichlorophenyl)-imino]-imidazolidine.HCl, reference compound]
[1]
  ED50: 17 µg/kg
Bradycardiac Effect
  ED60: 10 µg/kg

## Cl.Fc1cccc(Br)c1N=C1NCCN1 [2-[(2-Bromo-6-fluorophenyl)-imino]-imidazolidine hydrochloride]
Calf
  Effect: analgesia during and after the operation: good
  Effect: sedation during and after the operation: good
[1]
  ED50: 4 µg/kg
Poultry; 2.0 mg/kg i.m.
  Effect: sedation: strong sedation
Poultry; 2.0 mg/kg p.o.
  Effect: sedation: good sedation
Poultry; 0.01-0.1 mg/kg i.m.
  Effect: sedation: weak sedation
Poultry; 0.1-0.5 mg/kg i.m.
  Effect: sedation: good sedation
Poultry; 0.5-1.0 mg/kg i.m.
  Effect: sedation: very good sedation
Poultry; 0.5-1.0 mg/kg p.o.
  Effect: sedation: good sedation
Cattle (calf); calf, 0.04 mg/kg p.o.
  Effect: depth of sedation: very good depth of sedation
  Effect: rousability: animal cannot be roused
Cattle (calf); 0.006 mg/kg i.v., i.m.
  Effect: analgesia: no analgesia
  Effect: sedation: low-level sedation
Cattle (calf); 0.008 mg/kg i.m.
  Effect: sedation: good sedation
  Effect: sleep: deep
Cattle (calf); 0.009 mg/kg i.m.
  Effect: sedation: very good sedation
  Effect: sleep: deep sleep
Cattle (calf); 0.009 mg/kg i.m., i.v. result: not total
  Effect: analgesia: as with i.v.
Cattle (calf); 0.009 mg/kg i.v.
  Effect: analgesia: not total
  Effect: sedation: very good sedation
  Effect: sleep: deep sleep
Cattle (calf); 0.01 mg/kg i.m.
  Effect: analgesia: moderate analgesia
  Effect: sedation: very good sedation
Cattle (calf); 0.01 mg/kg i.v.
  Effect: analgesia: moderate analgesia
  Effect: sedation: very good sedation
Horse; 0.03 mg/kg i.m.
  Effect: analgesia: no
  Effect: sedation: light sedation
Horse; 0.03 mg/kg i.v.
  Effect: analgesia: slight
  Effect: sedation: light sedation
Horse; 0.06 mg/kg i.m.
  Effect: analgesia: rather weaker analgesia
  Effect: sedation: moderate sedation
Horse; 0.06 mg/kg i.v.
  Effect: analgesia: good
  Effect: sedation: strong sedation
Horse; 0.07 mg/kg i.v.
  Effect: analgesia: good
  Effect: sedation: strong sedation
Horse; 0.08 mg/kg i.m.
  Effect: analgesia: good analgesia
  Effect: sedation: strong sedation
Pig; 0.01-0.03 mg/kg i.m.
  Effect: analgesia: weak
  Effect: sedation: weak sedation
Pig; 0.01-1.0 mg/kg i.m.
  Effect: sedation: strong sedation
Pig; 0.03-0.06 mg/kg i.m.
  Effect: analgesia: rather weaker
  Effect: sedation: good sedation
Pig; 0.06-0.1 mg/kg i.m.
  Effect: analgesia: good
  Effect: sedation: very good sedation
Bradycardiac Effect
  ED60: 3 µg/kg

## Fc1cccc(Br)c1N=C1NCCN1 [2-[(2-bromo-6-fluorophenyl)-imino]-imidazolidine]
[2]
  bradycardiac effect: marked bradycardiac effect
